Assay results published in patent publication US20260216149A1, “USE OF DIAZAPHENANTHRENE PROTONATED DIMER” (XI’AN LIZE TECHNOLOGY PROJECT INVESTMENT CO., LTD., priority 2023, published 2026).
pIC50: −log10 of the molar value.

Assays:
C. diphtheriae = settings: 12 h culture, absorbance 600 nm
S. bovis = assay: Tests for MIC and MBC; assay type: cell-based, Streptococcus bovis; settings: unit assumed; for MIC: 12 h culture, absorbance 600 nm; for MBC: subculture further 12 h
P. fluorescens = assay: Tests for MIC and MBC; assay type: cell-based, Pseudomonas fluorescens; settings: unit assumed; for MIC: 12 h culture, absorbance 600 nm; for MBC: subculture further 12 h
C. albicans = assay: Tests for MIC and MFC; assay type: cell-based, Candida albicans; settings: unit assumed; for MIC: 12 h culture, absorbance 600 nm; for MFC: subculture further 12 h
C. neoformans = assay: Tests for MIC and MFC; assay type: cell-based, Cryptococcus neoformans; settings: unit assumed; for MIC: 12 h culture, absorbance 600 nm; for MFC: subculture further 12 h
S. epidermidis = assay: Tests for MIC and MBC; assay type: cell-based, Staphylococcus epidermidis; settings: unit assumed; for MIC: 12 h culture, absorbance 600 nm; for MBC: subculture further 12 h
S. thermophilus = assay: Tests for MIC and MBC; assay type: cell-based, Streptococcus thermophilus; settings: unit assumed; for MIC: 12 h culture, absorbance 600 nm; for MBC: subculture further 12 h
E. coli = settings: 12 h culture, absorbance 600 nm
A. niger = assay: Tests for MIC and MFC; assay type: cell-based, Aspergillus niger; settings: unit assumed; for MIC: 12 h culture, absorbance 600 nm; for MFC: subculture further 12 h
B. cereus = assay: Tests for MIC and MBC; assay type: cell-based, Bacillus cereus; settings: unit assumed; for MIC: 12 h culture, absorbance 600 nm; for MBC: subculture further 12 h
S. lactis = assay: Tests for MIC and MBC; assay type: cell-based, Streptococcus lactis; settings: unit assumed; for MIC: 12 h culture, absorbance 600 nm; for MBC: subculture further 12 h
P. aeruginosa = assay: Tests for MIC and MBC; assay type: cell-based, Pseudomonas aeruginosa; settings: unit assumed; for MIC: 12 h culture, absorbance 600 nm; for MBC: subculture further 12 h
K. pneumoniae = assay: Tests for MIC and MBC; assay type: cell-based, Klebsiella pneumoniae; settings: unit assumed; for MIC: 12 h culture, absorbance 600 nm; for MBC: subculture further 12 h
A. flavus = assay: Tests for MIC and MFC; assay type: cell-based, Aspergillus flavus; settings: unit assumed; for MIC: 12 h culture, absorbance 600 nm; for MFC: subculture further 12 h
E. faecalis = assay: Tests for MIC and MBC; assay type: cell-based, Enterococcus faecalis; settings: unit assumed; for MIC: 12 h culture, absorbance 600 nm; for MBC: subculture further 12 h
H. staphylococcus = assay: Tests for MIC and MBC; assay type: cell-based, hemolytic staphylococcus; settings: unit assumed; for MIC: 12 h culture, absorbance 600 nm; for MBC: subculture further 12 h
B. subtilis = assay: Tests for MIC and MBC; assay type: cell-based, Bacillus subtilis; settings: unit assumed; for MIC: 12 h culture, absorbance 600 nm; for MBC: subculture further 12 h
C. perfringens = settings: 12 h culture, absorbance 600 nm
T. rubrum = assay: Tests for MIC and MFC; assay type: cell-based, Trichophyton rubrum; settings: unit assumed; for MIC: 12 h culture, absorbance 600 nm; for MFC: subculture further 12 h
L. monocytogenes = assay: Tests for MIC and MBC; assay type: cell-based, Listeria monocytogenes; settings: unit assumed; for MIC: 12 h culture, absorbance 600 nm; for MBC: subculture further 12 h
S. mutans = assay: Tests for MIC and MBC; assay type: cell-based, Streptococcus mutans; settings: unit assumed; for MIC: 12 h culture, absorbance 600 nm; for MBC: subculture further 12 h
P. vulgaris = assay: Tests for MIC and MBC; assay type: cell-based, Proteus vulgaris; settings: unit assumed; for MIC: 12 h culture, absorbance 600 nm; for MBC: subculture further 12 h
M. globosa = assay: Tests for MIC and MFC; assay type: cell-based, Malassezia globosa; settings: unit assumed; for MIC: 12 h culture, absorbance 600 nm; for MFC: subculture further 12 h
S. enteritidis = assay: Tests for MIC and MBC; assay type: cell-based, Salmonella enteritidis; settings: unit assumed; for MIC: 12 h culture, absorbance 600 nm; for MBC: subculture further 12 h
S. aureus = settings: 12 h culture, absorbance 600 nm
Y. enterocolitis = assay: Tests for MIC and MBC; assay type: cell-based, Yersinia enterocolitis; settings: unit assumed; for MIC: 12 h culture, absorbance 600 nm; for MBC: subculture further 12 h
M. furfur = assay: Tests for MIC and MFC; assay type: cell-based, Malassezia furfur; settings: unit assumed; for MIC: 12 h culture, absorbance 600 nm; for MFC: subculture further 12 h
[1] = system: Human neuroblastoma SH-SY5Y cell line; assay: IC50 determination (CCK-8); assay type: cell-based; settings: DMEM/F12, treated 8 h
Protocol: (§1) The cells were washed with PBS (pH 7.4), added with a CCK-8 solution (Beijing Beyotime Biotechnology) to each well according to the instructions, and then incubated for 4 h.

[2] = system: Human lung adenocarcinoma A549 cell line; assay: IC50 determination (CCK-8); assay type: cell-based; settings: A549, DMEM HG, treated 8 h
Protocol: as §1

[3] = system: Mouse liver cancer H22 cell line; assay: IC50 determination (CCK-8); assay type: cell-based; settings: H22, RPMI 1640, treated 8 h
Protocol: as §1

[4] = system: Human neuroglioma U521MG cell Line; assay: IC50 determination (CCK-8); assay type: cell-based; settings: DMEM HG, treated 8 h
Protocol: as §1

[5] = system: Mouse melanoma B16 cell line; assay: IC50 determination (CCK-8); assay type: cell-based; settings: B16, RPMI 1640, treated 8 h
Protocol: as §1

Cryptococcus neoformans = assay: Test for Cryptococcus-infected mice; assay type: in vivo; settings: Example 1 2, 4, 8 mg/kg iv, fluconazole 8 mg/kg ip

O=S(=O)(O)O.c1cnc2c(c1)ccc1cccnc12.c1cnc2c(c1)ccc1cccnc12.c1cnc2c(c1)ccc1cccnc12.c1cnc2c(c1)ccc1cccnc12 [Example 3]
MIC (C. diphtheriae): 2
MIC (S. bovis): 0.8 µg/mL
MBC (S. bovis): 3 µg/mL
MIC (P. fluorescens): 0.5 µg/mL
MBC (P. fluorescens): 3 µg/mL
MIC (C. albicans): 0.5 µg/mL
MFC (C. albicans): 9 µg/mL
MIC (C. neoformans): 0.5 µg/mL
MFC (C. neoformans): 6 µg/mL
MIC (S. epidermidis): 0.5 µg/mL
MBC (S. epidermidis): 3 µg/mL
MIC (S. thermophilus): 1 µg/mL
MBC (S. thermophilus): 5 µg/mL
MIC (E. coli): 0.5
MIC (A. niger): 0.5 µg/mL
MFC (A. niger): 6 µg/mL
MIC (B. cereus): 2 µg/mL
MBC (B. cereus): 9 µg/mL
MIC (S. lactis): 1.5 µg/mL
MBC (S. lactis): 6 µg/mL
MIC (P. aeruginosa): 0.5 µg/mL
MBC (P. aeruginosa): 3 µg/mL
MIC (K. pneumoniae): 1 µg/mL
MBC (K. pneumoniae): 6 µg/mL
MIC (A. flavus): 0.5 µg/mL
MFC (A. flavus): 6 µg/mL
MIC (E. faecalis): 8 µg/mL
MBC (E. faecalis): 30 µg/mL
MIC (H. staphylococcus): 0.2 µg/mL
MBC (H. staphylococcus): 0.6 µg/mL
MIC (B. subtilis): 0.6 µg/mL
MBC (B. subtilis): 3 µg/mL
MIC (C. perfringens): 3
MIC (T. rubrum): 2 µg/mL
MFC (T. rubrum): 12 µg/mL
MIC (L. monocytogenes): 0.3 µg/mL
MBC (L. monocytogenes): 1.5 µg/mL
MIC (S. mutans): 1 µg/mL
MBC (S. mutans): 5 µg/mL
MIC (P. vulgaris): 1 µg/mL
MBC (P. vulgaris): 6 µg/mL
MIC (M. globosa): 2 µg/mL
MFC (M. globosa): 12 µg/mL
MIC (S. enteritidis): 1 µg/mL
MBC (S. enteritidis): 5 µg/mL
MIC (S. aureus): 0.5
MIC (Y. enterocolitis): 0.5 µg/mL
MBC (Y. enterocolitis): 3 µg/mL
MIC (M. furfur): 1 µg/mL
MFC (M. furfur): 6 µg/mL

F[P-](F)(F)(F)(F)F.O=[N+]([O-])c1cc2ccc[nH+]c2c2ncccc12.O=[N+]([O-])c1cc2cccnc2c2ncccc12 [Example 7]
pIC50 [1]: 4.49
pIC50 [2]: 3.49
pIC50 [3]: 3.49
pIC50 [4]: 3.49
pIC50 [5]: 3.49
MIC (B. cereus): 0.5 µg/mL
MBC (B. cereus): 4 µg/mL

OC(Cn1cncn1)(Cn1cncn1)c1ccc(F)cc1F [fluconazole]
pathological symptoms of brains and lungs (cerebral edema, pneumonia) (Cryptococcus neoformans): pathological symptoms were improved
Cryptococcus-infected symptoms and weight (Cryptococcus neoformans; once a day for 9 days): the symptoms were improved, and the weight gained

F[Si-2](F)(F)(F)(F)F.c1cnc2c(c1)ccc1ccc[nH+]c12.c1cnc2c(c1)ccc1ccc[nH+]c12.c1cnc2c(c1)ccc1cccnc12.c1cnc2c(c1)ccc1cccnc12 [Example 2]
MIC (C. diphtheriae): 1.6
MIC (S. bovis): 0.6 µg/mL
MBC (S. bovis): 2 µg/mL
MIC (P. fluorescens): 0.4 µg/mL
MBC (P. fluorescens): 3 µg/mL
MIC (C. albicans): 0.4 µg/mL
MFC (C. albicans): 8 µg/mL
MIC (C. neoformans): 0.4 µg/mL
MFC (C. neoformans): 5 µg/mL
MIC (S. epidermidis): 0.4 µg/mL
MBC (S. epidermidis): 2.5 µg/mL
MIC (S. thermophilus): 0.8 µg/mL
MBC (S. thermophilus): 4 µg/mL
MIC (E. coli): 0.4
MIC (A. niger): 0.4 µg/mL
MFC (A. niger): 4 µg/mL
MIC (B. cereus): 2 µg/mL
MBC (B. cereus): 6 µg/mL
MIC (S. lactis): 1.2 µg/mL
MBC (S. lactis): 4 µg/mL
MIC (P. aeruginosa): 0.4 µg/mL
MBC (P. aeruginosa): 2 µg/mL
MIC (K. pneumoniae): 0.8 µg/mL
MBC (K. pneumoniae): 5 µg/mL
MIC (A. flavus): 0.4 µg/mL
MFC (A. flavus): 6 µg/mL
MIC (E. faecalis): 6 µg/mL
MBC (E. faecalis): 20 µg/mL
MIC (H. staphylococcus): 0.2 µg/mL
MBC (H. staphylococcus): 0.5 µg/mL
MIC (B. subtilis): 0.6 µg/mL
MBC (B. subtilis): 2.5 µg/mL
MIC (C. perfringens): 2.5
MIC (T. rubrum): 1.6 µg/mL
MFC (T. rubrum): 10 µg/mL
MIC (L. monocytogenes): 0.3 µg/mL
MBC (L. monocytogenes): 1.2 µg/mL
MIC (S. mutans): 0.8 µg/mL
MBC (S. mutans): 4 µg/mL
MIC (P. vulgaris): 0.8 µg/mL
MBC (P. vulgaris): 4 µg/mL
MIC (M. globosa): 2 µg/mL
MFC (M. globosa): 10 µg/mL
MIC (S. enteritidis): 0.8 µg/mL
MBC (S. enteritidis): 4 µg/mL
MIC (S. aureus): 0.4
MIC (Y. enterocolitis): 0.4 µg/mL
MBC (Y. enterocolitis): 2 µg/mL
MIC (M. furfur): 1 µg/mL
MFC (M. furfur): 6 µg/mL
